# Measurements from article PMC10587737, “Dracorhodin targeting CMPK2 attenuates inflammation: A novel approach to sepsis therapy” (Clinical and Translational Medicine, 2023).
# System: siCmpk2/dsCmpk2-transduced BMDMs
# Assay: Inflammasome readouts in siCmpk2- or dsCmpk2-transduced BMDMs
# Type: cell-based, mouse
# Procedure: BMDMs were plated in 6-well plates at a density of 1.5×10^6 cells per well and then transfected with 150 nM siRNA using Lipofectamine RNAiMAX according to the manufacturer’s guidelines (Invitrogen). siRNA sequences were chemically synthesized by GenePharma, and the negative control siRNA was also from GenePharma. The siRNA sequences were as follows: sicmpk2 5’-[…]-3’.
# Full-length human CMPK2 was cloned and inserted into a pcDNA3.1(+) vector (Invitrogen) for expression in mouse BMDMs. An HA tag was placed after the C-terminal of CMPK2. Mouse BMDMs were transfected using Fugene HD Transfection Reagent (Promega) with the CMPK2 plasmid. BMDMs were plated in 6-well plates at a density of 1.5×10^6 cells per well and then transfected with 6 μg dsDNA using FuGENE according to the manufacturer’s guidelines (Promega).
structure (smiles),measurement,setting,value
"COc1c2ccc(-c3ccccc3)oc-2cc(=O)c1C [compound 73, Dracohodin perochlorate]",effect on TNF-α in supernatant,CMPK2-overexpressing BMDMs,negligible
same,inhibitory effect on IL-1β,CMPK2-overexpressing BMDMs,reversed
same,release of TNF-α in supernatant,"WT/siCmpk2 BMDMs, DP 12 or 1 h, ATP/Nigericin",no significant change
same,ASC oligomerization,"siCmpk2-transduced BMDMs, different concentrations of DP",not significantly altered
